US6500817B1, “Thiazolyl urea derivatives and their utilization as antiviral agents” (Bayer Aktiengesellschaft, priority 1999, dated 2002)

In the case of `CCCOc1ccc(NC(=O)N(CCN(C)C)c2nc(C)c(S(=O)(=O)NC)s2)cc1`, the melting point is reported as 165 °C. With `CCCCOc1ccc(NC(=O)N(C)c2nc(Cl)c(S(=O)(=O)N(C)C)s2)cc1` the melting point was 140 °C. `Cc1nc(N(CC2CCCO2)C(=O)Nc2ccc(-c3ccccc3)cc2)sc1S(N)(=O)=O` (stereo not shown) showed a melting point of 165 °C. In the case of `CCc1nc(N(C)C(=O)Nc2ccc(N3CCOCC3)cc2)sc1S(=O)(=O)N(C)C`, the melting point is reported as 199 °C. For `CCOc1ccc(NC(=O)N(CC2CCCO2)c2nc(C)c(S(=O)(=O)NC)s2)cc1` (stereo not shown), the melting point was 150 °C. Compound `CCOc1ccc(NC(=O)N(CCCCNC(=O)OC(C)(C)C)c2nc(C)c(S(=O)(=O)NC)s2)cc1` has a melting point of 148 °C. `CNS(=O)(=O)c1sc(NC(=O)Nc2ccc(-c3ccccc3)cc2)nc1C` showed a melting point of 199 °C. For `CCOc1ccc(NC(=O)OCCN(C(=O)Nc2ccc(OCC)cc2)c2nc(C)c(S(=O)(=O)N(C)C)s2)cc1`, the melting point was 177 °C. In the case of `CCOC(=O)N1CC2CCC(c3ccc(NC(=O)N(C)c4nc(C)c(S(=O)(=O)N(C)C)s4)cc3)C2C1` (stereo not shown), the melting point is reported as 136 to 137 °C. Work on `CCOc1ccc(NC(=O)N(C)c2ncc(S(=O)(=O)NCc3ccccc3)s2)cc1` yielded a melting point of 171 °C. Work on `CN(C(=O)Nc1ccc(N2CCOCC2)c(F)c1)c1nc(Cl)c(S(=O)(=O)N(C)C)s1` yielded a melting point of 196 °C. `CCOc1ccc(NC(=O)N(C)c2nc(Cl)c(S(=O)(=O)NCc3ccccc3)s2)cc1` showed a melting point of 170 °C. For `CN(C(=O)Nc1ccc(-n2ccnn2)cc1)c1nc(Cl)c(S(=O)(=O)N(C)C)s1`, the melting point was 225 °C. With `CCOc1ccc(NC(=O)N(CCc2ccccc2)c2nc(C)c(S(=O)(=O)NCc3ccccc3)s2)cc1` the melting point was 156 °C. `CCOc1ccc(NC(=O)N(C)c2nc(C)c(S(=O)(=O)NCc3ccccn3)s2)cc1` showed a melting point of 154 °C. Compound `CCOc1ccc(NC(=O)N(C)c2ncc(S(=O)(=O)N(C)C)s2)cc1` has a melting point of 194 °C. In the case of `CCOc1ccc(N(C)C(=O)Nc2nc(C)c(S(=O)(=O)N(C)C)s2)cc1`, the melting point is reported as 118 °C. With `CNS(=O)(=O)c1sc(N(CCN(C)C)C(=O)Nc2ccc(-c3ccccc3)cc2)nc1C` the melting point was 154 °C. Work on `CCOc1ccc(NC(=O)N(CCOC)c2nc(C)c(S(=O)(=O)N(C)C)s2)cc1` yielded a melting point of 162 °C. Work on `CCOc1ccc(NC(=O)N(CCCNC(=O)OC(C)(C)C)c2nc(C)c(S(=O)(=O)NCC(F)(F)F)s2)cc1` [136] yielded a melting point of 150 °C. In the case of `CCOc1ccc(NC(=O)N(CCC2CCCN2C)c2nc(C)c(S(=O)(=O)NC)s2)cc1` (stereo not shown), the melting point is reported as 141 °C. For `Cc1nc(N(CCN(C)C)C(=O)Nc2ccc(-c3ccccc3)cc2)sc1S(=O)(=O)N(C)C(=O)Nc1ccc(-c2ccccc2)cc1`, the melting point was 190 °C. `CNS(=O)(=O)c1sc(N(Cc2ccccn2)C(=O)Nc2ccc(N3CCOCC3)cc2)nc1C` gave a melting point of 206 °C. With `Cc1nc(N(C)C(=O)Nc2ccc(-c3ccccc3)cc2)sc1S(=O)(=O)N(C)C` the melting point was 228 °C. Compound `CCCN(C(=O)Nc1ccc(OCC)cc1)c1nc(Cl)c(S(=O)(=O)N(C)C)s1` has a melting point of 132 °C. For `CCCN(C(=O)Nc1ccc(-c2ccccc2)cc1)c1nc(C)c(S(=O)(=O)NC)s1`, the melting point was 156 °C. Compound `CCOc1ccc(NC(=O)N(CC2COc3ccccc3O2)c2nc(C)c(S(=O)(=O)NC3CC3)s2)cc1` (stereo not shown) has a melting point of 170 °C. `CN(C(=O)Nc1ccc(N2CCOCC2)cc1)c1nc(Cl)c(S(=O)(=O)NCc2ccccc2)s1` gave a melting point of 201 °C. With `CCOc1ccc(NC(=O)N(Cc2cccnc2)c2nc(C)c(S(=O)(=O)NC)s2)cc1` the melting point was 212 °C. Work on `CNS(=O)(=O)c1sc(N(CCCN(C)C)C(=O)Nc2ccc(-c3ccccc3)cc2)nc1C` yielded a melting point of 196 °C. Work on `CCOc1ccc(NC(=O)N(C)c2nc(C)c(S(=O)(=O)NCC3CC3)s2)cc1` yielded a melting point of 164 °C. For `Cc1nc(N(C)C(=O)Nc2ccc(N3CCC3)cc2)sc1S(=O)(=O)N(C)C`, the melting point was 193 to 195 °C. Work on `Cc1nc(N(C)C(=O)Nc2ccc(OCC(C)(C)C)cc2)sc1S(=O)(=O)N(C)C` yielded a melting point of 158 °C. `CCCNS(=O)(=O)c1sc(N(CCC)C(=O)Nc2ccc(-c3ccccc3)cc2)nc1C` gave a melting point of 137 °C.
